In article PMC11783400, “Assessment of Potential Drug–Drug Interactions for Novel Oral Melanocortin‐1 Receptor Agonist Dersimelagon” (Pharmacology Research & Perspectives, 2025):

Assays:
MATE1 = target: T1, MATE1 (Homo sapiens, UniProt Q96FL8); assay: uptake inhibition in HEK293 cells expressing the transporter; assay type: cell-based
T1 construct: gene SLC47A1; expressed in HEK293 cells
T1 sequence (Q96FL8 1-570): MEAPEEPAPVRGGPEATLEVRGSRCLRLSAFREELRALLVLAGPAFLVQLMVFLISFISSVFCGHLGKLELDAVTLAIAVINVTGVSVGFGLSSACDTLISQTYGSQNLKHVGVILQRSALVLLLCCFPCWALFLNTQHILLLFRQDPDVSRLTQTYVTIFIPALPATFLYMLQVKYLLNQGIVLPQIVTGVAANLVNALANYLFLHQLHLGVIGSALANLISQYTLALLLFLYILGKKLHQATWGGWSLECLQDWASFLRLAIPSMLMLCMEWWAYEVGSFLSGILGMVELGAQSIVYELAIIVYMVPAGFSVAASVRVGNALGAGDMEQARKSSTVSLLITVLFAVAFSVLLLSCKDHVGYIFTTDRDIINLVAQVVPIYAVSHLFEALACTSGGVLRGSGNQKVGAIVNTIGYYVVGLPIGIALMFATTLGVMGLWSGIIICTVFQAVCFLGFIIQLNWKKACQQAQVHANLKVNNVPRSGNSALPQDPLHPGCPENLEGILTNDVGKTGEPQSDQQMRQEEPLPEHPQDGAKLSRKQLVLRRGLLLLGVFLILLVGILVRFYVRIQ
Text: uptake inhibition in HEK293 cells expressing the transporter on MATE1

OATP1B3 = target: T2, OATP1B3 (Homo sapiens, UniProt Q9NPD5); assay: as above; assay type: cell-based
T2 construct: gene SLCO1B3; expressed in HEK293 cells
T2 sequence (Q9NPD5 1-702): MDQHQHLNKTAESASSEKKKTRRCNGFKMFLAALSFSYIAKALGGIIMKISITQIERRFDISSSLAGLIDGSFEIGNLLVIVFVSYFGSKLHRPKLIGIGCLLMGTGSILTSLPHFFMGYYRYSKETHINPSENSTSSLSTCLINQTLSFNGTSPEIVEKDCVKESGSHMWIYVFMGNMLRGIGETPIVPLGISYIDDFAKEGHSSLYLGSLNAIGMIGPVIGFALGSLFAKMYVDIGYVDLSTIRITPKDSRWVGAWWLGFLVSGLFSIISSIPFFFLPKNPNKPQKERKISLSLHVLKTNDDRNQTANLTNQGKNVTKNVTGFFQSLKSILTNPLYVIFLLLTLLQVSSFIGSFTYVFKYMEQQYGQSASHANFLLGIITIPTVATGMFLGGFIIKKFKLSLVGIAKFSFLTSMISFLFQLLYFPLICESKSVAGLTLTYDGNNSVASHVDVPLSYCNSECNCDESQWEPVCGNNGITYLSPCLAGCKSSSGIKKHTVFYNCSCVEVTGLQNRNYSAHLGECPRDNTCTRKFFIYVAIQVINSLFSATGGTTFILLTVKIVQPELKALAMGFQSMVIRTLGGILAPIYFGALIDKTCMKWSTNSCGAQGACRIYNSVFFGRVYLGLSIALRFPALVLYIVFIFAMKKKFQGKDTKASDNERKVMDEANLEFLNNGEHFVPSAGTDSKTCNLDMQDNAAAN
Text: uptake inhibition in HEK293 cells expressing the transporter on OATP1B3

OATP1B1 = target: T3, OATP1B1 (Homo sapiens, UniProt Q9Y6L6); assay: as above; assay type: cell-based
T3 construct: gene SLCO1B1; expressed in HEK293 cells
T3 sequence (Q9Y6L6 1-691): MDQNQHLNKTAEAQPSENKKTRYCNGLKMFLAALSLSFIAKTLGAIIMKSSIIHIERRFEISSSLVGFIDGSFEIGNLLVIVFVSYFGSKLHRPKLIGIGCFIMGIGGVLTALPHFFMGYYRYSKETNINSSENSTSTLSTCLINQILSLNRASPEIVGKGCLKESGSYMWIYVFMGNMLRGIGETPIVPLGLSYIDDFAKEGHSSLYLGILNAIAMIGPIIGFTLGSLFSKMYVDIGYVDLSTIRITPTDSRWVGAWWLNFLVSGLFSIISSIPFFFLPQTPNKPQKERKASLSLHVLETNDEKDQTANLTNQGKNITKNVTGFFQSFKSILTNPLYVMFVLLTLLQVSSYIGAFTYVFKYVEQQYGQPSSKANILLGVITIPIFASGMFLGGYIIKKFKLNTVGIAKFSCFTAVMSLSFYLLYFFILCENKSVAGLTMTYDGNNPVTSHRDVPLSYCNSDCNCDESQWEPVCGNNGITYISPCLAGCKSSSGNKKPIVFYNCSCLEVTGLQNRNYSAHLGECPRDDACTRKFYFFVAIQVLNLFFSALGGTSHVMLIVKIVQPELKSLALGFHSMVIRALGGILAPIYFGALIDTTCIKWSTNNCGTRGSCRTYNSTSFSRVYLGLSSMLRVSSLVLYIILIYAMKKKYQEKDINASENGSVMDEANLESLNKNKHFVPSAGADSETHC
Text: uptake inhibition in HEK293 cells expressing the transporter on OATP1B1

UGT2B7 = target: T4, UGT2B7 (Homo sapiens, UniProt P16662); assay: glucuronidation inhibition in human liver microsomes; assay type: biochemical; settings: substrate 3'-azido-3'-deoxythymidine; direct inhibition
T4 construct: native enzyme in human liver microsomes
T4 sequence (P16662 24-529): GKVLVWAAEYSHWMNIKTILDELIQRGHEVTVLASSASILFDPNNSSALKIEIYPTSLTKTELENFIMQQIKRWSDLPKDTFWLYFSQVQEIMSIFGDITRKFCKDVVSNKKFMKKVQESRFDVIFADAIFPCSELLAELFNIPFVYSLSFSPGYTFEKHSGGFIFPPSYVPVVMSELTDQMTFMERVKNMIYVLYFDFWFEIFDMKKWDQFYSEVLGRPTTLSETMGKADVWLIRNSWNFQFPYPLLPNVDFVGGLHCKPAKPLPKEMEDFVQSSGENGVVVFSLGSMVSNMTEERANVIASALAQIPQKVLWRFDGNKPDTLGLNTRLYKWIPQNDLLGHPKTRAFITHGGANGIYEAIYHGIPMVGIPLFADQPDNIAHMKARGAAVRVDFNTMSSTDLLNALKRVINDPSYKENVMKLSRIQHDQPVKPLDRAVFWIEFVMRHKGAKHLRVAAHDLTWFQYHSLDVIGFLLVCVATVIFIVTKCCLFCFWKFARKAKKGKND
Text: glucuronidation inhibition in human liver microsomes on UGT2B7

IC50 (MATE1): 5640 nM | IC50 (OATP1B3): 47.1 nM | IC50 (OATP1B1): 158 nM | IC50 (UGT2B7): > 50 µM
Compound: COC[C@H]1CN(C(=O)[C@]2(F)CN(C3CCCC3)C[C@H]2c2ccc(OC)cc2)C[C@@H]1c1ccc(C(F)(F)F)cc1N1CCC(C(=O)O)CC1 [dersimelagon]
